Measured values from publication PMC6690746 (European journal of medicinal chemistry, 2018).
pEC50: −log10 of the molar value. “Also recorded” adds a separate entry of the source.

Key:
Format in all cases: cell-based, human
T98G cells = assay: Antitumor activity; details: for pEC50: Homo sapiens, read-out: Antitumor activity EC50; for Maximal killing activity: concentration not stated at this place; for Fold increase in EC50 value compared with 8: versus compound 8 (87 nM)
[1] = system: NCI-60 cancer cell line panel; assay: NCI 60 cell screen; details: for Loss in cell number: NCI-60, the 4 cell lines killed
PD-GBM cells = assay: Cell-killing activity in PD-GBM cells, all subtypes together; details: applied at 1–10 μM
HepG2 (liver) = assay: Cell-killing activity; details: HepG2, at 1–10 μM
[2] = NCI-60, the 11 cell lines with halted proliferation
[3] = NCI-60, the 41 cell lines with reduced proliferation rate

With `COc1ccc(/C=C\c2cc(OC)c(OC)c(OC)c2)cc1O` [Compound 1, combretastatin A-4, reference compound] the Maximal killing (T98G cells; 72 h, at 10 nM) was 30.4% ± 2.1 and the pEC50 (T98G cells; 72 h) was 9.22.
`COC(=O)Nc1nc2cc(C(=O)c3cccs3)ccc2[nH]1` [Compound 3, nocodazole, reference compound] was tested, and the “Maximal killing (% ± SEM)” value (T98G cells; 72 h, at 10 μM) was 45.6% ± 1.7 and the pEC50 (T98G cells; 72 h) was 7.54.
`CCn1c2ccccc2c2cc(C(=O)c3ccc(C)c4ccccc34)ccc21` [Compound 8, 9-ethyl-3-[(4-methylnaphthalen-1-yl)carbonyl]-9H-carbazole] was tested, and the “Loss in cell number” value [1] was 13% to 60%, the Percent growth inhibition [1, 2] was 9% to −1% and the Percent growth inhibition [1, 3] was 67% to 10%. For the same compound, the Maximal killing activity (T98G cells; 72 h) was 35–45%.
For `CCn1c2ccccc2c2cc(C(=O)N3CCN(C)CC3)ccc21` [Compound 9, 9-ethyl-3-(4-methylpiperazine-1-carbonyl)-9H-carbazole], the “Effect on T98G cells in words” value (T98G cells; 72 h) was “only weakly active at concentrations above five micromolar or essentially inactive; also recorded: did not significantly affect T98G cell viability”.
For `CCn1c2ccccc2c2cc(C(=O)Cc3ccccc3)ccc21` [Compound 13, 1-(9-ethyl-9H-carbazol-3-yl)-2-phenylethan-1-one], the “Effect on T98G cells in words” value (T98G cells; 72 h) was “only weakly active at concentrations above five micromolar or essentially inactive; also recorded: did not significantly affect T98G cell viability”.
With `CCn1c2ccccc2c2cc(C(=O)c3cccc4ccccc34)ccc21` [Compound 14, 9-ethyl-3-(naphthalene-1-carbonyl)-9H-carbazole] the “Fold increase in EC50 value compared with 8” value (“Fold increase in EC50 value” for short) (T98G cells) was 20 fold.
With `CCCn1c2ccccc2c2cc(C(=O)c3ccc(C)c4ccccc34)ccc21` [Compound 16, 9-propyl-3-[(4-methylnaphthalen-1-yl)carbonyl]-9H-carbazole] the “Effect on T98G cells in words” value (T98G cells; 72 h) was “only weakly active at concentrations above five micromolar or essentially inactive; also recorded: did not significantly affect T98G cell viability” and the “Fold increase in EC50 value” value (T98G cells) was 115 fold.
With `Cc1ccc(C(=O)c2ccc3c(c2)c2ccccc2n3CC(F)(F)F)c2ccccc12` [Compound 18, 3-(4-methylnaphthalene-1-carbonyl)-9-(2,2,2-trifluoroethyl)-9H-carbazole] the “Effect on T98G cells in words” value (T98G cells; 72 h) was “only weakly active at concentrations above five micromolar or essentially inactive”, the Maximal killing activity (T98G cells; 72 h) was 35–45% and the “Fold increase in EC50 value” value (T98G cells) was 64 fold.
For `CCn1c2ccccc2c2cc(C(=O)c3cccc4ncccc34)ccc21` [Compound 20, 9-ethyl-3-(quinoline-5-carbonyl)-9H-carbazole], the “Loss in cell number” value [1] was 13% to 60%, the Percent growth inhibition [1, 2] was 9% to −1% and the Percent growth inhibition [1, 3] was 67% to 10%.
With `CCn1c2ccccc2c2cc(C(=O)c3cccc4c3CCCN4)ccc21` [Compound 23] the “Effect on NCI-60 cell lines in words” value ([1]; NCI-60 panel) was “did not significantly affect the viability and proliferation of any of the cell lines”, the “Growth inhibition: Delta” value ([1]; NCI-60 panel) was 10.42 and the “Growth inhibition: Mean” value ([1]; NCI-60 panel, over all cell lines) was 102.05. For the same compound, the “Effect on T98G cells in words” value (T98G cells; 72 h) was “only weakly active at concentrations above five micromolar or essentially inactive; also recorded: did not significantly affect T98G cell viability”.
`CCn1c2ccccc2c2cc(C(=O)c3cccc4c3NCCC4)ccc21` [Compound 24, 9-ethyl-3-(1,2,3,4-tetrahydroquinoline-8-carbonyl)-9H-carbazole] was tested, and the “Effect on T98G cells in words” value (T98G cells; 72 h) was “only weakly active at concentrations above five micromolar or essentially inactive; also recorded: did not significantly affect T98G cell viability”.
With `CCn1c2ccccc2c2cc(C(=O)N3CCCc4ccccc43)ccc21` [Compound 25, 9-ethyl-3-[(1,2,3,4-tetrahydroquinolin-1-yl)carbonyl]-9H-carbazole] the PD-GBM cells killed (PD-GBM cells) was 95–100% and the “Activity in HepG2 cells in words” value (HepG2 (liver)) was “inactive”.
For `CCn1c2ccccc2c2cc(C(=S)c3ccc(C)c4ccccc34)ccc21` [Compound 26, 9-ethyl-3-(4-methylnaphthalene-1-carbothioyl)-9H-carbazole], the “Effect on T98G cells in words” value (T98G cells; 72 h) was “only weakly active at concentrations above five micromolar or essentially inactive; also recorded: did not significantly affect T98G cell viability”.
In the case of `CCn1c2ccccc2c2cc(C(O)c3ccc(C)c4ccccc34)ccc21` (stereo not drawn) [Compound 27, (9-ethyl-9H-carbazol-3-yl)(4-methylnaphthalen-1-yl)methanol], the “Loss in cell number” value [1] was 13% to 60%, the Percent growth inhibition [1, 2] was 9% to −1% and the Percent growth inhibition [1, 3] was 67% to 10%. The “Fold increase in EC50 value” value (T98G cells) was 6 fold.
In the case of `CCn1c2c(c3ccccc31)CN(C(=O)c1ccc(C)c3ccccc13)CC2` [Compound 35, 5-ethyl-2-[(4-methylnaphthalen-1-yl)carbonyl]-1H,2H,3H,4H,5H-pyrido[4,3-b]indole], the Maximal killing activity (T98G cells; 72 h) was 35–45%.
In the case of `CC[C@]1(O)C[C@@H]2CN(CCc3c([nH]c4ccccc34)[C@@](C(=O)OC)(c3cc4c(cc3OC)N(C)[C@H]3[C@@](O)(C(=O)OC)[C@H](OC(C)=O)[C@]5(CC)C=CCN6CC[C@]43[C@@H]65)C2)C1` [vinblastine, reference compound], the Maximal killing activity (T98G cells; 72 h) was 36.0% ± 2.3.
